According to US20240300954A1, “NOVEL MODULATORS OF THE SIGMA-2 RECEPTOR AND THEIR METHOD OF USE” (Temple University-Of The Commonwealth System of Higher …, priority 2017, published 2024):

Target: sigma-2 receptors (Homo sapiens, UniProt Q5BJF2)
Assay: Radiolabel Binding Studies for the Sigma-2 Receptor (3H-DTG competition)
Conditions: 3H-DTG radioligand; membrane fractions of cells expressing recombinant sigma-2 receptors
Experimental: A solution of the compound of the disclosure to be tested is prepared as a 1-mg/ml stock in Assay Buffer or DMSO according to its solubility. A similar stock of the reference compound Haloperidol is also prepared as a positive control. Eleven dilutions (5× assay concentration) of the compound of the disclosure and Haloperidol are prepared in the Assay Buffer by serial dilution to yield final corresponding assay concentrations ranging from 10 pM to 10 μM.
A stock concentration of 5 nM ^3H-1,3-di-(2-tolyl)guanidine (^3H-DTG) is prepared in 50 mM Tris-HCl, 10 mM MgCl2, 1 mM EDTA, pH 7.4 (Assay Buffer). Aliquots (50 μl) of radioligand are dispensed into the wells of a 96-well plate containing 100 μl of Assay Buffer. Duplicate 50 μl aliquots of the compound of the disclosure test and Haloperidol positive control reference compound serial dilutions are added.
Membrane fractions of cells expressing recombinant sigma-2 receptors (50 μL) are dispensed into each well. The membranes are prepared from stably tranfected cell lines expressing sigma-2 receptors cultured on 10-cm plates by harvesting PBS-rinsed monolayers, resuspending and lysing in chilled, hypotonic 50 mM Tris-HCl, pH 7.4, centrifuging at 20,000×g, decanting the supernatant and storing at −80° C.; the membrane preparations are resuspended in 3 ml of chilled Assay Buffer and homogenized by several passages through a 26 gauge needle before using in the assay.
The 250-μl reactions are incubated at room temperature for 1.5 hours, then harvested by rapid filtration onto 0.3% polyethyleneimine-treated, 96-well filter mats using a 96-well Filtermate harvester. Four rapid 500-μl washes are performed with chilled Assay Buffer to reduce non-specific binding. The filter mats are dried, then scintillant is added to the filters and the radioactivity retained on the filters is counted in a Microbeta scintillation counter.
Raw data (dpm) representing total radioligand binding (i.e., specific+non-specific binding) are plotted as a function of the logarithm of the molar concentration of the competitor (i.e., test or reference compound). Non-linear regression of the normalized (i.e., percent radioligand binding compared to that observed in the absence of test or reference compound) raw data is performed in Prism 4.0 (GraphPad Software) using the built-in three parameter logistic model describing ligand competition binding to radioligand-labeled sites:
[formula] • where bottom equals the residual radioligand binding measured in the presence of 10 μM reference compound (i.e., non-specific binding) and top equals the total radioligand binding observed in the absence of competitor. The log IC50 (i.e., the log of the ligand concentration that reduces radioligand binding by 50%) is thus estimated from the data and used to obtain the Ki by applying the Cheng-Prusoff approximation:
[formula] • where [ligand] equals the assay radioligand concentration and KD equals the affinity constant of the radioligand for the target receptor.

sigma-2 receptors, sequence (Q5BJF2 whole entry, looked up): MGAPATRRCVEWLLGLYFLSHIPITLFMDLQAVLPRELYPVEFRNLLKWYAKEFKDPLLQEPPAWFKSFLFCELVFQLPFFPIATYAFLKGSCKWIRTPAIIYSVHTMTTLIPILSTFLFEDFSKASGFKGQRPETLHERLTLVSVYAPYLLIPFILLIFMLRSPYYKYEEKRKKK

Structure (SMILES)	IC50 [nM]
CC(C)c1ccccc1N1CC2CN(CCC3CC4(CCCCC4)C(=O)O3)CC2C1 (stereo not drawn) [Entry 5]	2.4
O=C1OC(CCN2CC3(C2)CN(c2ccncc2)C3)CC12CCCCC2 (stereo not drawn) [Entry 9]	34
CCC1(CC)CC(CCN2CC3CN(c4ccccc4C(C)C)CC3C2)OC1=O (stereo not drawn) [Entry 4]	2
CCC1(CC)CC(CCN2CC3CN(c4ccccc4)CC3C2)OC1=O (stereo not drawn) [Entry 1]	3.5
Cc1cc(N2CC3CN(CCC4CC5(CCCCC5)C(=O)O4)CC3C2)ccn1 (stereo not drawn) [Entry 7]	11
O=C1OC(CCN2CC3CN(c4ccncc4)CC3C2)CC12CCCCC2 (stereo not drawn) [Entry 3]	39
CCC1(CC)CC(CCN2CC3CN(c4ccncc4)CC3C2)OC1=O (stereo not drawn) [Entry 2]	29
Cc1cc(N2CC3CN(CCC4CC5(CCCCC5)C(=O)O4)CC3C2)cc(C)n1 (stereo not drawn) [Entry 8]	24
Cc1cnccc1N1CC2CN(CCC3CC4(CCCCC4)C(=O)O3)CC2C1 (stereo not drawn) [Entry 6]	3.9

Now from value to molecule:

IC50 [nM]	Structure (SMILES)
3.9	Cc1cnccc1N1CC2(CN(CCC3CC4(CCCCC4)C(=O)O3)C2)C1 (stereo not drawn) [Entry 12]
6.5	CCC1(CC)CC(CCN2CC3CN(c4ccccc4OC)CC3C2)OC1=O (stereo not drawn) [Entry 19]
25	CCC1(CC)CC(CCN2CC3CN(c4cccc(OC)c4)CC3C2)OC1=O (stereo not drawn) [Entry 20]
1.5	Cc1cc(N2CC3(CN(CCC4CC5(CCCCC5)C(=O)O4)C3)C2)cc(C)n1 (stereo not drawn) [Entry 14]
22	CCC1(CC)CC(CCN2CC3CN(c4ccc(OC)cc4)CC3C2)OC1=O (stereo not drawn) [Entry 21]
30	O=C1OC(CCN2CC3(C2)CN(c2ccccc2)C3)CC12CCCCC2 (stereo not drawn) [Entry 11]
59	CCC1(CC)CC(CCN2CC3(C2)CN(c2ccncc2)C3)OC1=O (stereo not drawn) [Entry 10]
7	CCC1(CC)CC(CCN2CC3CN(c4cccc(C#N)c4)CC3C2)OC1=O (stereo not drawn) [Entry 17]
9.6	CCC1(CC)CC(CCN2CC3CN(c4ccc(C#N)cc4)CC3C2)OC1=O (stereo not drawn) [Entry 18]
6.8	CCC1(CC)CC(CCN2CC3CN(c4ccccc4C#N)CC3C2)OC1=O (stereo not drawn) [Entry 16]
1.2	Cc1cc(N2CC3(CN(CCC4CC5(CCCCC5)C(=O)O4)C3)C2)ccn1 (stereo not drawn) [Entry 13]
53	CCC1(CC)CC(CCN2CC3(C2)CN(c2ccccc2)C3)OC1=O (stereo not drawn) [Entry 15]
